According to patent publication US9850216B2 (H. LEE MOFFITT CANCER CENTER AND RESEARCH INSTITUTE, INC., priority 2013, dated 2017):
Values joined by “and” are separate entries in the source; they are usually repeats but may differ in a detail not shown here. Equal values may be shown once. Where a name gives a salt, the structure may show the parent alone. Read-outs that look alike come from different tables or passages of the source.

Columns and labels:
[1] = target: T1, ACK1 (Homo sapiens, UniProt Q07912); experiment: 32P Hotspot assay (Reaction Biology), ACK1 IC50; assay type: biochemical
T1 sequence (Q07912 whole entry): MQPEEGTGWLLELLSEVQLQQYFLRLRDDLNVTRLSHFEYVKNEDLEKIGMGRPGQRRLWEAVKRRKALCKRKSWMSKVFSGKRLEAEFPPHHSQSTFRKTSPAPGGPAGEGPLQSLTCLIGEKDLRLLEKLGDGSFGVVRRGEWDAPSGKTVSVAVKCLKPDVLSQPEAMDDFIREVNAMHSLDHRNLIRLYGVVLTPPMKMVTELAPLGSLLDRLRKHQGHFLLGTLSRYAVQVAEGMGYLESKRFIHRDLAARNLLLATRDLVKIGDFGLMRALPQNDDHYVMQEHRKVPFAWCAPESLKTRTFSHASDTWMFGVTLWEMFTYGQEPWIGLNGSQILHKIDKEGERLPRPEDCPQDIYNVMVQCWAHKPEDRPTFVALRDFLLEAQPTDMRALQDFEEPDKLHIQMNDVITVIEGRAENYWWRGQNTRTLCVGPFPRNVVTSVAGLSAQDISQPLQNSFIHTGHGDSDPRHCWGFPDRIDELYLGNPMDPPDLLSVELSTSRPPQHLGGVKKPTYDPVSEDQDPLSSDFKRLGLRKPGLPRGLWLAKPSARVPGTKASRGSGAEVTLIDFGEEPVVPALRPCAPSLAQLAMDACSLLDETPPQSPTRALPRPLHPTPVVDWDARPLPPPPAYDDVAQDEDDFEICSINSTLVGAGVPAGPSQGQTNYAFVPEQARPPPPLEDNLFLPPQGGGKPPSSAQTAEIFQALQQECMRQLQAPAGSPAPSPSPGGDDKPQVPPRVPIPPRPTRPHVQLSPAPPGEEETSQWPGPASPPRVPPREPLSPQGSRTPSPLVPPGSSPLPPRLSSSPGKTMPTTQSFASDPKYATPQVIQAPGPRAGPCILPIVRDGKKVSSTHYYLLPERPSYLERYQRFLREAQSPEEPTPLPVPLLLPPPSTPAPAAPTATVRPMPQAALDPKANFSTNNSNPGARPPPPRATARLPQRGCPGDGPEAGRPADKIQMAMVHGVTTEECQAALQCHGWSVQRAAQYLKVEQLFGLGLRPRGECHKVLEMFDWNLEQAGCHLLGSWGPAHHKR
Procedure: 8 compounds were tested against […], ACK1, Src and ALK in various combinations. […] Reactions were carried out at 10 μM ATP.

[2] = target: T1, ACK1; experiment: ACK1 ELISA: phosphorylation of AKT-derived peptide; assay type: biochemical; conditions: 10 μM
[3] = 32P hotspot / enzymatic assay, read-out: ACK1 IC50
[4] = Table 2, read-out: IC50 (32P Hotspot assay)
[5] = Table 2, library 9, read-out: % Inhibition @ 10 μM (ELISA)
[6] = Table 1, unit inferred, (RB) = Reaction Biology, replicates listed, read-out: IC50
[7] = Table 1, replicate values listed
[8] = Table 1, replicate values listed, read-out: % Inhibition at 10 μM (ELISA)
[9] = Table 4, 10-dose, 10 μM ATP, read-out: Compound IC50 (M), ACK1
[10] = Table 3, 10-dose, 3-fold dilution from 10 μM, 10 μM ATP, read-out: Compound IC50* (M): ACK1
[11] = Table 1, replicate values listed, hydrochloride
[12] = Table 1, nM, (RB) = Reaction Biology, replicates listed, read-out: IC50

Row | SMILES | IC50 [1, 6] | % Inhibition at 10 μM (ELISA) [2, 7] | inhibition at 10 µM [2, 8] | % Inhibition at 10 μM (ELISA) [2, 11] | melting point | other results
1 | Clc1cnc(Nc2ccc(N3CCNCC3)cc2)nc1NCC1CCCO1 (stereo not shown) [Compound 9a] | – | – | – | – | – | IC50 [1, 3]: 8.1e-08 M; % Inhibition @ 10 μM (ELISA) ([2]; Table 2, library 9): 82 ± 12.7%
2 | Clc1cnc(Nc2ccc(N3CCOCC3)cc2)nc1NCC1CCCO1 (stereo not shown) [Compound 9c] | – | – | – | – | – | IC50 [1, 4]: 6.75e-08 M
3 | O=C(O)C1CCN(c2ccc(Nc3ncc(Cl)c(NCC4CCCO4)n3)cc2)CC1 (stereo not shown) [Compound 9e] | – | – | – | – | – | IC50 [1, 3]: 8.5e-08 M; inhibition at 10 µM [2, 5]: 93 ± 5.1%
4 | Clc1cnc(Nc2ccc(C3CCNCC3)cc2)nc1NCC1CCCO1 (stereo not shown) [Compound 9f] | – | – | – | – | – | IC50 [1, 3]: 2.31e-07 M; inhibition at 10 µM [2, 5]: 79.5 ± 0.7%
5 | Brc1cnc(Nc2ccc(C3CCNCC3)cc2)nc1NCC1CCCO1 (stereo not shown) [Compound 9k] | – | – | – | – | – | IC50 [1, 4]: 1.69e-07 M; inhibition at 10 µM [2, 5]: 84.5 ± 0.7%
6 | O=C(Nc1c(F)cccc1Cl)c1cnc(Nc2ccc(N3CCC(C(=O)O)CC3)cc2)nc1NCC1CCCO1 (stereo not shown) [Compound 9s] | – | – | – | – | – | IC50 [1, 3]: 3.4e-08 M and 3.2e-08 M; IC50 [1, 4]: 3.42e-08 M; inhibition at 10 µM [2, 5]: 98%
7 | Clc1cnc(Nc2ccc(N3CCOCC3)cc2)nc1NC[C@H]1CCCO1 [DZ1-064] | 4.65e-08 M | – | – | – | – | –
8 | O=C(O)C1CCN(c2ccc(Nc3ncc(Cl)c(NC[C@H]4CCCO4)n3)cc2)CC1 [DZ1-072, (R)-1-(4-(5-chloro-4-((tetrahydrofuran-2-yl)methylamino)pyrimidin-2-ylamino)phenyl)piperidine-4-carboxylic acid] | 9.16e-08 M | 95% | 96% | – | – | –
9 | Clc1cnc(Nc2ccc(N3CCOCC3)cc2)nc1NC[C@@H]1CCCO1 [DZ1-074] | 7.41e-08 M | – | – | – | – | –
10 | O=C(O)C1CCN(c2ccc(Nc3ncc(Cl)c(NC[C@@H]4CCCO4)n3)cc2)CC1 [DZ1-082, (S)-1-(4-(5-chloro-4-((tetrahydrofuran-2-yl)methylamino)pyrimidin-2-ylamino)phenyl)piperidine-4-carboxylic acid] | 5.47e-08 M | 94% | 92% | – | – | –
11 | Cl.O=C(Nc1c(F)cccc1Cl)c1cnc(Nc2ccc(C3CCNCC3)cc2)nc1NCC1CCCO1 (stereo not shown) [DZ1-089, N-(2-chloro-6-fluorophenyl)-2-(4-(piperidin-4-yl)phenylamino)-4-((tetrahydrofuran-2-yl)methylamino)pyrimidine-5-carboxamide] | 5.33e-08 M | 97, 97% | – | – | – | –
12 | Brc1cnc(Nc2ccc(N3CCOCC3)cc2)nc1NCC1CCCO1.Cl (stereo not shown) [DZ1-091, 5-bromo-N2-(4-morpholinophenyl)-N4-((tetrahydrofuran-2-yl)methyl)pyrimidine-2,4-diamine] | 1.06e-07 M | 90% | 88% | – | – | –
13 | Cl.O=C(Nc1c(F)cccc1Cl)c1cnc(Nc2ccc(N3CCC(C(=O)O)CC3)cc2)nc1NCC1CCCO1 (stereo not shown) [DZ1-096] | 3.63e-08 M and 3.22e-08 M | 98, 98% | 98% | – | – | IC50 [1, 9]: 3.22e-08 M
14 | CN1CCN(c2ccc(Nc3ncc(C(=O)Nc4c(F)cccc4Cl)c(NCC4CCCO4)n3)cc2)CC1 (stereo not shown) [DZ1-114, N-(2-chloro-6-fluorophenyl)-2-(4-(4-methylpiperazin-1-yl)phenylamino)-4-((tetrahydrofuran-2-yl)methylamino)pyrimidine-5-carboxamide] | – | 95% | 99% | – | – | IC50 [1, 10]: 4.83e-08 M
15 | Oc1ccc(Nc2ncc(Cl)c(NCC3CCCO3)n2)cc1 (stereo not shown) [DZ1-120, 4-(5-chloro-4-((tetrahydrofuran-2-yl)methylamino)pyrimidin-2-ylamino)phenol] | 1.63e-07 M | 58% | 73% | – | – | IC50 [1, 10]: 1.63e-07 M
16 | CN1CCN(c2ccc(Nc3ncc(Br)c(NCC4CCCO4)n3)cc2)CC1 (stereo not shown) [DZ1-122, 5-bromo-N2-(4-(4-methylpiperazin-1-yl)phenyl)-N4-((tetrahydrofuran-2-yl)methyl)pyrimidine-2,4-diamine] | 4.8e-08 M | 91% | 95% | – | – | –
17 | Cc1cc(Nc2ncc(Cl)c(Nc3ccccc3S(=O)(=O)C(C)C)n2)c(OC(C)C)cc1C1CCNCC1 [LDK, reference compound] | 8.87e-08 M | – | – | – | – | –

Row | SMILES | IC50 [1, 6] | % Inhibition at 10 μM (ELISA) [2, 7] | inhibition at 10 µM [2, 8] | % Inhibition at 10 μM (ELISA) [2, 11] | melting point | other results
18 | CN1CCN(c2ccc(Nc3ncc(Cl)c(NCC4CCCO4)n3)cc2)CC1 (stereo not shown) [MH1-022-5, 5-chloro-N2-(4-(4-methylpiperazin-1-yl)phenyl)-N4-((tetrahydrofuran-2-yl)methyl)pyrimidine-2,4-diamine] | – | 91% | 90% | – | – | IC50 [1, 9]: 5.44e-08 M
19 | Cl.Oc1ccc(Nc2ncc(Br)c(NCC3CCCO3)n2)cc1 (stereo not shown) [SK1-028, 4-(5-Bromo-4-((tetrahydrofuran-2-yl)methylamino)pyrimidin-2-ylamino)phenol hydrochloride] | – | – | – | 59% and 81% and 85% and 65% and 67% | – | IC50 [1, 10]: 1.64e-07 M
20 | Cc1cc(Nc2ncc(Br)c(NCC3CCCO3)n2)ccc1O.Cl (stereo not shown) [SK1-040, 4-(5-bromo-4-((tetrahydrofuran-2-yl)methylamino)pyrimidin-2-ylamino)-2-methylphenol] | – | 90% and 61% and 56% and 57% | – | – | – | IC50 [1, 12]: 9.95e-08 M
21 | Cl.Oc1ccc(Nc2ncc(Br)c(NCC3CCCO3)n2)cc1F (stereo not shown) [SK1-044, 4-(5-bromo-4-((tetrahydrofuran-2-yl)methylamino)pyrimidin-2-ylamino)-2-fluorophenol] | – | 89% and 63% and 28% and 38% | – | – | – | IC50 [1, 12]: 2.99e-07 M
22 | O=C(Nc1c(F)cccc1Cl)c1cnc(Nc2ccc(O)cc2)nc1NCC1CCCO1 (stereo not shown) [YL7-104-2, N-(2-chloro-6-fluorophenyl)-2-(4-hydroxyphenylamino)-4-((tetrahydrofuran-2-yl)methylamino)pyrimidine-5-carboxamide] | – | 76% | 85% | – | – | IC50 [1, 12]: 5.44e-08 M
23 | Cl.NC(=O)c1ccc(Nc2ncc(Br)c(NCC3CCCO3)n2)cc1 (stereo not shown) [YL7-172-5, 4-(5-Bromo-4-((tetrahydrofuran-2-yl)methylamino)pyrimidin-2-ylamino)benzamide hydrochloride] | – | – | – | 31% and 77% and 82% | 251 °C (dec.) | –
24 | Cl.Fc1cc(Nc2ncc(Br)c(NCC3CCCO3)n2)ccc1Cl (stereo not shown) [YL7-172-7, 5-Bromo-N2-(4-chloro-3-fluorophenyl)-N4-((tetrahydrofuran-2-yl)methyl)pyrimidine-2,4-diamine hydrochloride] | – | – | – | 0% and 5% and 3% | 172 °C (dec.) | –
25 | COc1ccc(Nc2ncc(Br)c(NCC3CCCO3)n2)cc1F.Cl (stereo not shown) [YL7-172-8, 5-Bromo-N2-(3-fluoro-4-methoxyphenyl)-N4-((tetrahydrofuran-2-yl)methyl)pyrimidine-2,4-diamine hydrochloride] | – | – | – | 14% and 35% and 41% | 169 °C (dec.) | –
26 | Cl.Oc1ccc(Nc2nc(NCC3CCCO3)c3ccccc3n2)cc1F (stereo not shown) [YL8-001, 2-Fluoro-4-(4-((tetrahydrofuran-2-yl)methylamino)quinazolin-2-ylamino)phenol hydrochloride] | – | – | – | 4% and 10% and −6% | 144 °C (dec.) | –
27 | Cl.O=C(O)c1cc(Nc2ncc(Br)c(NCC3CCCO3)n2)ccc1O (stereo not shown) [YL8-003-1, 5-(5-Bromo-4-((tetrahydrofuran-2-yl)methylamino)pyrimidin-2-ylamino)-2-hydroxybenzoic acid hydrochloride] | – | – | 27% | 28% and 16% | 211 °C (dec.) | –
28 | Cl.NS(=O)(=O)c1ccc(Nc2ncc(Br)c(NCC3CCCO3)n2)cc1 (stereo not shown) [YL8-003-3, 4-(5-Bromo-4-((tetrahydrofuran-2-yl)methylamino)pyrimidin-2-ylamino)benzenesulfonamide hydrochloride] | – | – | 56% | 68% and 63% | 214 °C (dec.) | –
29 | Cl.O=C(Nc1c(F)cccc1Cl)c1cnc(Nc2ccc(O)c(Cl)c2)nc1NCC1CCCO1 (stereo not shown) [YL8-009-1, 2-(3-Chloro-4-hydroxyphenylamino)-N-(2-chloro-6-fluorophenyl)-4-((tetrahydrofuran-2-yl)methylamino)pyrimidine-5-carboxamide hydrochloride] | – | – | 41% | 42% and 48% | 158 °C (dec.) | –
30 | Cl.O=C(O)c1cc(Nc2ncc(C(=O)Nc3c(F)cccc3Cl)c(NCC3CCCO3)n2)ccc1O (stereo not shown) [YL8-009-2, 5-(5-(2-Chloro-6-fluorophenylcarbamoyl)-4-((tetrahydrofuran-2-yl)methylamino)pyrimidin-2-ylamino)-2-hydroxybenzoic acid hydrochloride] | – | – | 44% | 40% and 55% | 298 °C (dec.) | –
31 | CC(C)(C)OC(=O)N1CCN(c2ccc(Nc3ncc(Br)c(NCC4CCCO4)n3)cc2)CC1.Cl (stereo not shown) [YL9-157, tert-Butyl4-(4-(5-bromo-4-((tetrahydrofuran-2-yl)methylamino)pyrimidin-2-ylamino)phenyl)piperazine-1-carboxylate hydrochloride] | – | – | 47% | 46% | 124 °C (dec.) | –
32 | CC(C)(C)OC(=O)N1CCN(c2ccc(Nc3ncc(C(=O)Nc4c(F)cccc4Cl)c(NCC4CCCO4)n3)cc2)CC1.Cl (stereo not shown) [YL9-161, tert-Butyl4-(4-(5-(2-chloro-6-fluorophenylcarbamoyl)-4-((tetrahydrofuran-2-yl)methylamino)pyrimidin-2-ylamino)phenyl)piperazine-1-carboxylate hydrochloride] | – | – | 28% | 31% | 184 to 186 °C | –
33 | Brc1cnc(Nc2ccc(N3CCNCC3)cc2)nc1NCC1CCCO1 (stereo not shown) [YL9-167, 5-Bromo-N2-(4-(piperazin-1-yl)phenyl)-N4-((tetrahydrofuran-2-yl)methyl)pyrimidine-2,4-diamine TFA salt] | – | – | – | – | – | IC50 [1, 10]: 9.47e-08 M
